No end group written: not given here.
Legend:
S. aureus ATCC 25923 [1] = assay: Membrane depolarization DiSC3(5); type: cell-based, Staphylococcus aureus; conditions: 2 × MIC, DiSC3(5) fluorescence
Method: (§1) Membrane depolarization activities of omiganan and retro-omiganan were evaluated using DiSC3(5) (3,3′-dipropylthiadicarbocyanine iodide; Thermo Fischer Scientific, Invitrogen™). The S. aureus ATCC 25923 and S. aureus ATCC 33591 strains were grown at 37 °C up to a mid-log phase (approx. 4 h) in the Mueller–Hinton broth. The cultures were centrifuged (3500 rpm, 7 min) and washed with a 20 mM glucose solution in HEPES buffer (5 mM, pH 7.2). The cells were resuspended in a 5 mM HEPES buffer supplemented with 20 mM glucose and 100 mM KCl (pH 7.2) to an OD 0.05 at 600 nm. The final concentration of the dye was 0.4 μM. The fluorescence was monitored at 20 °C (λex 620 nm and λem 678 nm) with Fluoroskan Ascent FL (Thermo Fisher Scientific) fluorometer. […] A HEPES solution with glucose was used as a negative control. The measurements were conducted twice to ensure the reproducibility.

[2] = system: S. aureus ATCC 33591 (MRSA); assay: Membrane depolarization DiSC3(5); type: cell-based, Staphylococcus aureus; conditions: 2 × MIC, DiSC3(5) fluorescence
Method: as §1

S. aureus ATCC 25923 [3] = assay: microbe, parasite or virus in culture
Description: (§2) Clinical S. aureus strains were collected from patients with atopic dermatitis during their visits to the Outpatient Clinic and hospitalization in the Department of Dermatology, Venereology and Allergology at Medical University of Gdańsk (following the approval from the ethics committee, Approval Number NKBBN/242–477/2014). Reference strains of S. aureus ATCC 25923, S. aureus ATCC 33591, S. aureus ATCC 9144, and S. aureus ATCC 12598 were obtained from the American Type Culture Collection. All the strains were stored at − 80 °C in Roti®-Store cryo vials (Carl Roth GmbH, Karlsruhe, Germany) and before the tests were transferred into fresh Mueller–Hinton Medium (BioMaxima, Lublin, Poland) and incubated for 24 h at 37 °C. Subsequently, each bacterial inoculum was seeded on Mueller–Hinton agar plates (BioMaxima) and incubated again for 24 h. The cultures prepared in this way were used in further antimicrobial assays. Minimum inhibitory concentrations (MICs) were determined according to the Clinical and Laboratory Standards Institute recommendations. […] The experiments were conducted on 96-well microtiter plates, with a final volume of 100 μL. Additionally, in the case of daptomycin, the medium was supplemented with Ca^2+ (50 mg/L). Cell densities were adjusted spectrophotometrically (Multiskan™ GO Microplate Spectrophotometer, Thermo Scientific) at 600 nm. The MICs were taken as the lowest drug concentration at which a visible growth of the microorganisms was inhibited. Minimum biofilm eliminating concentrations (MBECs) were determined on 96-well flat-bottomed microtiter polystyrene plates with resazurin (7-hydroxy-3H-phenoxazin-3-one 10-oxide sodium salt) as a cell viability reagent. To do this, the plates were filled with 100 μL of the initial inoculums of bacteria (0.5 × 10^7 CFU/mL) in the Mueller–Hinton broth and incubated for 24 h at 37 °C. […] After 24 h of incubation, 20 μL of resazurin (4 mg/mL) was added to each well and the MBEC values were read. Minimum biofilm inhibitory concentrations (MBICs) were also determined on 96-well flat-bottomed microtiter polystyrene plates as described previously. To do this, 50 μL of the compounds in the concentration range, diluted MHB, were prepared. Subsequently, the 50 μL of the staphylococcal inoculums were added to reach the same density of bacteria as that in the MBEC assay. After 24 h of incubation at 37 °C, the wells were rinsed three times with PBS and the fresh medium (100 μL) with resazurin (0.6 mg/mL) was added. Then, after 1 h of incubation, MBICs were read. […] All experiments were conducted in triplicate.
(§3) Formation of the biofilm inside the PDMS flow chambers was performed using three peristaltic pumps working simultaneously (LP-pump, Kamush, Lipopharm, Poland) and sterile Tygon® 3350 silicone hoses (2.4 × 0.8 × 0.8 mm) with a length of 30 and 50 cm for inlet and outlet, respectively. Bacterial suspensions were prepared (0.5 × 10^7 CFU/mL) in sterile 50-mL test tubes, which were placed in a heating block at 37 °C. Before experiments, all channels were assessed for tightness and sterilized using a 70% 2-propanol solution (10 min, flow rate 1 mL/min) and rinsed with sterile PBS solution (10 min, flow 0.1 mL/min). The formation of biofilm inside the channels was divided into three stages: (1) adhesion—at this stage S. aureus suspensions were passed through the channels for 4 h at a flow rate of 0.1 mL/min; (2) rinsing—the previously used hoses were replaced with new sterile ones, and the channels were rinsed with sterile PBS solution for 10 min at a flow rate of 0.1 mL/min; (3) biofilm growth—after flushing the channels, the silicone hoses were placed in tubes with MHB medium, which was passed through the channels for 24 h at a flow rate of 0.1 mL/min. All experiments included growth and sterility controls.
(§4) This assay was conducted also on the S. aureus ATCC 25923 and S. aureus 33,591 (MRSA) strains.

[4] = system: S. aureus ATCC 33591 (MRSA); assay: microbe, parasite or virus in culture
Description: as §2, §3, §4

[5] = S. aureus ATCC 33591 (MRSA) biofilm treated under flow with Omiganan (half MBEC) for 24 h
[6] = S. aureus ATCC 33591 (MRSA) biofilm treated under flow with Omiganan (half MBEC) for 48 h
[7] = S. aureus ATCC 33591 (MRSA) biofilm treated under flow with Omiganan (half MBEC) for 72 h
[8] = S. aureus ATCC 33591 (MRSA) biofilm treated under flow with Retro-Omiganan (half MBEC) for 24 h
[9] = S. aureus ATCC 33591 (MRSA) biofilm treated under flow with Retro-Omiganan (half MBEC) for 48 h
[10] = S. aureus ATCC 33591 (MRSA) biofilm treated under flow with Retro-Omiganan (half MBEC) for 72 h
[11] = S. aureus ATCC 33591 (MRSA), time 0 h (baseline, before peptide exposure)

Substance	membrane depolarization (S. aureus ATCC 25923 [1])	membrane depolarization [2]	MIC (S. aureus ATCC 25923 [3]; S. aureus 25923, time 0 h (baseline, before peptide exposure)) [µg/mL]	MIC (S. aureus ATCC 25923 [3]; S. aureus 25923 biofilm treated under flow with Omiganan (half MBEC) for 24 h) [µg/mL]	MIC (S. aureus ATCC 25923 [3]; S. aureus 25923 biofilm treated under flow with Omiganan (half MBEC) for 48 h) [µg/mL]	MIC (S. aureus ATCC 25923 [3]; S. aureus 25923 biofilm treated under flow with Omiganan (half MBEC) for 72 h) [µg/mL]	MIC (S. aureus ATCC 25923 [3]; S. aureus 25923 biofilm treated under flow with Retro-Omiganan (half MBEC) for 24 h) [µg/mL]	MIC (S. aureus ATCC 25923 [3]; S. aureus 25923 biofilm treated under flow with Retro-Omiganan (half MBEC) for 48 h) [µg/mL]	MIC (S. aureus ATCC 25923 [3]; S. aureus 25923 biofilm treated under flow with Retro-Omiganan (half MBEC) for 72 h) [µg/mL]	MIC [4, 5] [µg/mL]	MIC [4, 6] [µg/mL]	MIC [4, 7] [µg/mL]	MIC [4, 8] [µg/mL]	MIC [4, 9] [µg/mL]	MIC [4, 10] [µg/mL]	MIC [4, 11] [µg/mL]	MIC (S. aureus ATCC 25923 [3]; ATCC 25923, 0 h) [µg/mL]	MIC (S. aureus ATCC 25923 [3]; ATCC 25923, 24 h) [µg/mL]	MIC (S. aureus ATCC 25923 [3]; ATCC 25923, 48 h) [µg/mL]	MIC (S. aureus ATCC 25923 [3]; ATCC 25923, 72 h) [µg/mL]
KRRWPWWPWRLI-NH2 [Retro-Omiganan]	cause depolarization of S. aureus membranes immediately after the addition	cause depolarization of S. aureus membranes immediately after the addition	8.0	8.0	8.0	8.0	8.0	8.0	8.0	8.0	8.0	8.0	8.0	8.0	8.0	16.0				
ILRWPWWPWRRK-NH2 [Omiganan]	cause depolarization of S. aureus membranes immediately after the addition	cause depolarization of S. aureus membranes immediately after the addition								8.0	8.0	8.0	8.0	8.0	8.0	16.0	16.0	8.0	8.0	8.0

Reference: article PMC12055641, “The Study of Antistaphylococcal Potential of Omiganan and Retro-Omiganan Under Flow Conditions” (Probiotics and Antimicrobial Proteins, 2024)
